Results: ChEMBL document CHEMBL3988442, “University of Dundee, Small-Polar-MMV Screening Library” (2021)

Target: T1, Coenzyme A biosynthesis bifunctional protein CoaBC (Mycobacterium tuberculosis (strain ATCC 25618 / H37Rv), UniProt P9WNZ1)
T1 sequence (P9WNZ1 whole entry): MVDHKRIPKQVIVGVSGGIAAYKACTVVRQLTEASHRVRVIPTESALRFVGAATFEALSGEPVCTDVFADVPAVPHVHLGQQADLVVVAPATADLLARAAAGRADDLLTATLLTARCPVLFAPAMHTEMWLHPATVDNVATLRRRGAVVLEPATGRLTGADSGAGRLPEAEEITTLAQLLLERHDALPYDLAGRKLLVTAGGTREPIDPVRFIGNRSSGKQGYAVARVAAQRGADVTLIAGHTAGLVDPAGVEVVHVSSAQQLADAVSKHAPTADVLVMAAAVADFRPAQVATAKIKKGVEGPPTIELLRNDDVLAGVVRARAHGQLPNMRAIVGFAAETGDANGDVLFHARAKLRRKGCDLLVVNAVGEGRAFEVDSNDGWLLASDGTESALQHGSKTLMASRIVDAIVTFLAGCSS
Experiment: Biomol Green assay for MtCoaBC inhibitor, OD650 read
Type: functional

| Structure (SMILES) | IC50 |
| --- | --- |
| Fc1ccc(-c2nc(CN3CCCCC3Cn3cncn3)co2)cc1 (stereo not drawn) | > 30.2 µM |
| CCC(c1ccncc1)N(C)S(C)(=O)=O (stereo not drawn) | > 30.2 µM |
| CN(C)c1nccc(C2CCCCN2Cc2cnn3cccnc23)n1 (stereo not drawn) | > 30.2 µM |
| Cc1ncc2c(n1)CCN(CCCc1nc3ccccc3o1)C2 | > 50.1 µM |
| O=c1cc(C2CCNCC2)nc(CCc2ccccn2)[nH]1 | > 30.2 µM |
| COc1ccc(Cl)cc1C(=O)NCCNc1cnccn1 | > 30.2 µM |
| O=C(NCCc1ccncc1)[C@H]1C[C@@H]2CCN(c3nncs3)C[C@H]2O1 | > 30.2 µM |
| CC(c1nc(-c2ccccc2)no1)N1CCc2c(ncn2C2CC2)C1 (stereo not drawn) | > 30.2 µM |
| Cc1c(C(=O)N2CCN(c3ccccn3)CC2)n(C)c2ccc(Cl)cc12 | > 30.2 µM |
| NC(=O)c1cc2c(nc1Oc1cccc(CN3CCCC3)c1F)CCC2 | > 30.2 µM |
| COCC(=O)N1CCC(Oc2cccc(C)c2)CC1 | > 30.2 µM |
| Cc1cs/c(=N\C(=O)Cn2nc(N3CCOCC3)ccc2=O)[nH]1 | > 30.2 µM |
| CC(C)c1ncc2c(n1)CN(Cc1nc(-c3ccccn3)no1)CC2 | > 30.2 µM |
| CN(Cc1cccnc1)CC1CC12CCN(Cc1nccs1)CC2 (stereo not drawn) | > 50.1 µM |
| Cc1nnc(N2C[C@@H](OCC3CCCC3)[C@H]3OCCC[C@H]32)s1 | > 30.2 µM |
| C[C@H]1CN2C[C@H](O)CC2CN1Cc1ccc2nccnc2c1 (stereo partly drawn) | > 30.2 µM |
| CNC(=O)CCc1cccc(C2CCCN(c3cc(C)ncn3)C2)n1 (stereo not drawn) | > 30.2 µM |
| COc1c(-c2ccc(O)cc2)oc2cc(O)cc(O)c2c1=O [ISOKAEMPFERIDE] | > 30.2 µM |
| O=C1COC[C@H]([C@H](O)c2ccc(NC(=O)c3cccnc3)cc2)N1 | > 30.2 µM |
| COC(=O)c1ccc(S(=O)(=O)N2CCC(Oc3cccnn3)CC2)cc1 | > 30.2 µM |
| NC(=O)CC1CCN(S(=O)(=O)c2cnn(-c3ccccc3)c2)CC1 | > 30.2 µM |
| CC(NC(=O)CSCC(N)=O)c1ccc(Oc2ccccc2)cc1 (stereo not drawn) | > 30.2 µM |

| Structure (SMILES) | IC50 |
| --- | --- |
| NC(=O)C1CN(C(=O)Nc2ccccc2Oc2ccccc2Cl)CCO1 (stereo not drawn) | > 30.2 µM |
| CCc1ncc2c(n1)CN(Cc1nc(-c3cccs3)no1)CC2 | > 30.2 µM |
| CN(C)Cc1cccc(-c2cccnc2C(=O)NCc2cn(C)cn2)c1 | > 30.2 µM |
| Cc1cnn(CC2CCCN2Cc2nnc(C)o2)c1 (stereo not drawn) | > 30.2 µM |
| O=C(NC[C@H]1OC[C@@H](NCc2ccc(F)cc2)[C@@H]1O)N1CCOCC1 | > 30.2 µM |
| CCn1ccnc1CNCc1ccc(C)cc1OC(C)(C)C | > 30.2 µM |
| Cc1ccc(S(=O)(=O)NC[C@H]2OC[C@@H](NCc3cccs3)[C@@H]2O)cc1 | > 30.2 µM |
| Cc1cc(C)nc(N2CCC(C(=O)Nc3ncc[nH]3)CC2)n1 | > 30.2 µM |
| COc1cccc(N2CCN(C(=O)C(C)Oc3ccccc3)CC2=O)c1 (stereo not drawn) | > 30.2 µM |
| O=C1c2c(O)cc(O)cc2O[C@@H](c2ccc(O)cc2)[C@@H]1O | > 30.2 µM |
| CCOCC1CN(Cc2ccoc2)Cc2cn(CC3CC3)nc21 (stereo not drawn) | > 30.2 µM |
| CC(O)c1cn(Cc2ccc(Cl)cc2)nn1 (stereo not drawn) | > 30.2 µM |
| Cc1nnc2n1CC(CNCc1nc(-c3cccs3)no1)CC2 (stereo not drawn) | > 30.2 µM |
| CC(C(=O)NC1CC1)n1nc(-c2cccs2)cc(N)c1=O (stereo not drawn) | > 30.2 µM |
| CSCc1noc(CNC(=O)C2CCN(C(=O)C3CC3)CC2)n1 | > 30.2 µM |
| CC(C)(CNC(=O)C1(c2ccccc2)CCOCC1)C(=O)O | > 30.2 µM |
| CC(CS(C)(=O)=O)N(C(=O)CCc1cccc(F)c1)C1CC1 (stereo not drawn) | > 30.2 µM |
| OCCN(Cc1ccncc1)CC1(c2ccc(Cl)cc2)CCCC1 | > 30.2 µM |
| Cc1ccc(NC2CCN(C(=O)c3cccc4[nH]ncc34)CC2)nn1 | > 30.2 µM |
| Cn1cccc1CN1CCc2ncnc(-c3cccnc3)c2CC1 | > 30.2 µM |
| CN(C)C(=O)CN1CCCC2(CCN(c3ccsc3)C2=O)C1 (stereo not drawn) | > 30.2 µM |
| COc1ccccc1OCC(=O)NS(=O)(=O)c1cccnc1 | > 30.2 µM |

| Structure (SMILES) | IC50 |
| --- | --- |
| Cc1ccc(C(=O)O)c(N2Cc3cnc(C(C)(C)C)nc3C2)n1 | > 30.2 µM |
| CN1CCC(c2cccc(C(=O)N(C)C)n2)CC1 | > 30.2 µM |
| CC(=O)Nc1ccc(Oc2cccc(CN3CCCC3)c2)cc1 | > 50.1 µM |
| CCNC(=O)NC(=O)CNC(C)(C)c1ccc2c(c1)OCCO2 | > 30.2 µM |
| CC(C)C(=O)N1CCCC(Cc2cccnc2)C1 (stereo not drawn) | > 30.2 µM |
| COCCN(Cc1cnn(C)c1)CC1CCOC1 (stereo not drawn) | > 30.2 µM |
| CCCn1cc(CN2CCOCC2c2[nH]ncc2C)cn1 (stereo not drawn) | > 30.2 µM |
| O=C(NC1CCCC1)[C@@H]1CN(Cc2nccs2)C[C@H]2OCC[C@H]21 | > 30.2 µM |
| Cn1cc(N2C(=O)CC[C@@H]3[C@H]2CCN3Cc2nccs2)cn1 | > 30.2 µM |
| FC(F)(F)c1cccnc1N1CCC(OC2CCOCC2)CC1 | > 30.2 µM |
| NC(=O)N1CCC2(CC1)CN(c1ccsc1)C(=O)CO2 | > 30.2 µM |
| CC(NCc1ccccc1Cl)c1ccc2[nH]c(=O)[nH]c2c1 (stereo not drawn) | > 30.2 µM |
| COc1ccc(NC2(C(=O)N3CCCn4cncc4C3)CCCC2)cc1 | > 30.2 µM |
| Cc1ccc(CNCCN2CCOCC2)o1 | > 30.2 µM |
| CC(C)NC(=O)[C@@H]1C[C@H](N)CN1C(=O)C1(c2ccc(Cl)cc2)CCC1 | > 30.2 µM |
| CN1CCN(c2ncc3c(=O)n(Cc4ccco4)ccc3n2)CC1 | > 30.2 µM |
| CC(C(=O)Nc1ccc(N2CCCCC2)nc1)n1cncn1 (stereo not drawn) | > 30.2 µM |
| COCC1c2nnn(CC3CC3)c2CCN1C(=O)c1cccn1C (stereo not drawn) | > 30.2 µM |
| Cc1nc(-c2cc(C(=O)O)co2)cs1 | > 30.2 µM |
| Cc1nc2c(c(=O)[nH]1)CN(Cc1ccc3c(c1)CCCN3C)CC2 | > 30.2 µM |
| O=C1O[C@@H]2CN(c3ccc(Cl)cn3)C[C@@H]2N1CCc1ccc(F)cc1 | > 30.2 µM |
| COCCN1CC(C(=O)N(CCN(C)C)Cc2ccc(C)s2)CC1=O (stereo not drawn) | > 30.2 µM |

| Structure (SMILES) | IC50 |
| --- | --- |
| COc1ccc(CC(=O)Nc2ccc3ncn(C(C)C)c(=O)c3c2)cc1 | > 30.2 µM |
| CCc1cc(NCCN2CCNC2=O)n2nccc2n1 | > 30.2 µM |
| Cc1cc(N2CCC(c3ncc[nH]3)CC2)nc(N)n1 | > 30.2 µM |
| COc1ccc(-n2cc(CNC(=O)c3cc[nH]n3)nn2)cc1 | > 30.2 µM |
| Fc1ccc(Oc2nccnc2C2CCN(C3CCOCC3)CC2)cc1 | > 30.2 µM |
| CN(Cc1ccc(F)cc1)C(=O)NCc1nnc2n1CCC2 | > 30.2 µM |
| Cc1nc(N2CCC(CN3CCCC3)CC2)c2cnn(C)c2n1 | > 30.2 µM |
| CCNC(=O)C1(Cc2cc(-c3ccc(C)cc3)no2)CCCN(C)C1 (stereo not drawn) | > 30.2 µM |
| O=C(CCCC1CCCC1)NS(=O)(=O)CC1CC1 | > 30.2 µM |
| COc1ccc(-c2nnsc2C(=O)N2CCC(C(N)=O)CC2)cc1 | > 30.2 µM |
| Nc1nccnc1CC1CCCN(Cc2c[nH]c3ccccc23)C1 (stereo not drawn) | > 30.2 µM |
| CCN(CCO)C[C@@H]1CN(C(=O)c2ccc(C)s2)C[C@@H]1CO | > 30.2 µM |
| COCCNC(=O)[C@H]1C[C@@H]2CCN(c3ccccc3)C[C@H]2O1 | > 30.2 µM |
| Cc1cc(NC(=O)CN2CCN(c3nccs3)C(C)C2)no1 (stereo not drawn) | > 30.2 µM |
| Cc1cccc(CNC(=O)NCC2CCN(Cc3ncc[nH]3)C2)c1 (stereo not drawn) | > 30.2 µM |
| CCn1cc(CN(C)Cc2cnn(-c3ccc(F)cc3)c2)cn1 | > 30.2 µM |
| CCc1ncncc1C(=O)NCCNS(=O)(=O)c1ccc(C)cc1 | > 30.2 µM |
| CC(NCCCN1CCCC1=O)c1cc(Br)ccc1F (stereo not drawn) | > 30.2 µM |
| COC1CCN(CCNC(=O)NC(C)c2ccc(F)c(F)c2)CC1 (stereo not drawn) | > 30.2 µM |
| CC(CO)(NC(=O)NCc1ccc(Br)s1)C1CC1 (stereo not drawn) | > 30.2 µM |
| Cc1nn(C)c(C)c1C1CCCN1C(=O)c1cnc2onc(C)c2c1 (stereo not drawn) | > 30.2 µM |
| CC(=O)N1CCC(N2CCN3C(=O)N(Cc4ccccn4)C[C@H]3C2)CC1 | > 30.2 µM |
